{"source": "patent US4868321A", "about": "“Isothiocyanate intermediates” (FMC Corporation, priority 1988, dated 1989)", "assay_type_in_all_cases": "in vivo", "key": {"Rice [1]": {"system": "Rice", "experiment": "Preemergence Herbicidal Activity, Rice", "conditions": "Oryza sativa, pre-emergence", "outline": "(§1)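 Herbicidal response was graded as percent control. Compound rates were in kg/ha.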"}, "Johnsongrass [2]": {"system": "Johnsongrass", "experiment": "Preemergence Herbicidal Activity, Johnsongrass", "conditions": "Sorghum halepense, pre-emergence", "outline": "(§2)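 Efficacy is recorded as percent control at each application rate, expressed in kg/ha.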"}, "Field Corn [3]": {"system": "Field Corn", "experiment": "Preemergence Herbicidal Activity, Field Corn", "conditions": "Zea mays, pre-emergence", "outline": "as §1"}, "Wheat [4]": {"system": "Wheat", "experiment": "Postemergence Herbicidal Activity, Wheat", "conditions": "Triticum aestivum, post-emergence", "outline": "as §1"}, "Soybean [5]": {"system": "Soybean", "experiment": "Preemergence Herbicidal Activity, Soybean", "conditions": "Glycine max, pre-emergence", "outline": "as §1"}, "Barnyardgrass [6]": {"system": "Barnyardgrass", "experiment": "Postemergence Herbicidal Activity, Barnyardgrass", "conditions": "Echinochloa crus-galli, post-emergence", "outline": "as §2"}, "Cotton [7]": {"system": "Cotton", "experiment": "Postemergence Herbicidal Activity, Cotton", "conditions": "Gossypium hirsutum, post-emergence", "outline": "(§3)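 Test compounds were applied, usually as solutions in 50/50 acetone/water, to plants postemergence or to soil preemergence. Rates are given in kg/ha, and activity is scored as percent control (% C).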"}, "Green Foxtail [8]": {"system": "Green Foxtail", "experiment": "Postemergence Herbicidal Activity, Green Foxtail", "conditions": "Setaria viridis, post-emergence", "outline": "as §2"}, "Morningglory [9]": {"system": "Morningglory", "experiment": "Preemergence Herbicidal Activity, Morningglory", "conditions": "Ipomoea, pre-emergence", "outline": "as §3"}, "Wheat [10]": {"system": "Wheat", "experiment": "Preemergence Herbicidal Activity, Wheat", "conditions": "Triticum aestivum, pre-emergence", "outline": "as §1"}, "Field Corn [11]": {"system": "Field Corn", "experiment": "Postemergence Herbicidal Activity, Field Corn", "conditions": "Zea mays, post-emergence", "outline": "as §1"}, "Field Bindweed [12]": {"system": "Field Bindweed", "experiment": "Preemergence Herbicidal Activity, Field Bindweed", "conditions": "pre-emergence", "outline": "as §3"}, "Field Bindweed [13]": {"system": "Field Bindweed", "experiment": "Postemergence Herbicidal Activity, Field Bindweed", "conditions": "post-emergence", "outline": "as §3"}, "Cotton [14]": {"system": "Cotton", "experiment": "Preemergence Herbicidal Activity, Cotton", "conditions": "Gossypium hirsutum, pre-emergence", "outline": "as §3"}, "Johnsongrass [15]": {"system": "Johnsongrass", "experiment": "Postemergence Herbicidal Activity, Johnsongrass", "conditions": "Sorghum halepense, post-emergence", "outline": "as §2"}, "Soybean [16]": {"system": "Soybean", "experiment": "Postemergence Herbicidal Activity, Soybean", "conditions": "Glycine max, post-emergence", "outline": "as §1"}, "Morningglory [17]": {"system": "Morningglory", "experiment": "Postemergence Herbicidal Activity, Morningglory", "conditions": "Ipomoea, post-emergence", "outline": "as §3"}, "Rice [18]": {"system": "Rice", "experiment": "Postemergence Herbicidal Activity, Rice", "conditions": "Oryza sativa, post-emergence", "outline": "as §1"}, "Velvetleaf [19]": {"system": "Velvetleaf", "experiment": "Preemergence Herbicidal Activity, Velvetleaf", "conditions": "Abutilon theophrasti, pre-emergence", "outline": "as §3"}, "Green Foxtail [20]": {"system": "Green Foxtail", "experiment": "Preemergence Herbicidal Activity, Green Foxtail", "conditions": "Setaria viridis, pre-emergence", "outline": "as §2"}, "broad leaf weeds": {"system": "broad leaf weeds", "experiment": "preemergence use against broad leaf weeds", "conditions": "with crops such as corn, rice, wheat and soybeans"}, "Barnyardgrass [21]": {"system": "Barnyardgrass", "experiment": "Preemergence Herbicidal Activity, Barnyardgrass", "conditions": "Echinochloa crus-galli, pre-emergence", "outline": "as §2"}, "Velvetleaf [22]": {"system": "Velvetleaf", "experiment": "Postemergence Herbicidal Activity, Velvetleaf", "conditions": "Abutilon theophrasti, post-emergence", "outline": "as §3"}}, "data": [{"smiles": "CCS(=O)(=O)Nc1cc(-n2nnn(CCCF)c2=O)c(F)cc1Br", "note": "[Compound 34, 1-[4-Bromo-2-fluoro-5-(N--ethylsulfonylamino)phenyl]-4,5-dihydro-]", "values": [{"measurement": "plant injury at 250 g/ha", "setting": "Rice [1]; 0.25 kg/ha", "result": 60, "unit": "%"}, {"measurement": "pest or weed control at 250 g/ha", "setting": "Johnsongrass [2]; 0.25 kg/ha", "result": 50, "unit": "%"}, {"measurement": "plant injury at 250 g/ha", "setting": "Field Corn [3]; 0.25 kg/ha", "result": 60, "unit": "%"}, {"measurement": "plant injury at 250 g/ha", "setting": "Wheat [4]; 0.25 kg/ha", "result": 40, "unit": "%"}, {"measurement": "plant injury at 250 g/ha", "setting": "Soybean [5]; 0.25 kg/ha", "result": 20, "unit": "%"}, {"measurement": "pest or weed control at 250 g/ha", "setting": "Barnyardgrass [6]; 0.25 kg/ha", "result": 70, "unit": "%"}, {"measurement": "plant injury at 250 g/ha", "setting": "Cotton [7]; 0.25 kg/ha", "result": 100, "unit": "%"}, {"measurement": "pest or weed control at 250 g/ha", "setting": "Green Foxtail [8]; 0.25 kg/ha", "result": 90, "unit": "%"}, {"measurement": "pest or weed control at 250 g/ha", "setting": "Morningglory [9]; 0.25 kg/ha", "result": 100, "unit": "%"}, {"measurement": "plant injury at 250 g/ha", "setting": "Wheat [10]; 0.25 kg/ha", "result": 0, "unit": "%"}, {"measurement": "plant injury at 250 g/ha", "setting": "Field Corn [11]; 0.25 kg/ha", "result": 40, "unit": "%"}, {"measurement": "pest or weed control at 250 g/ha", "setting": "Field Bindweed [12]; 0.25 kg/ha", "result": 100, "unit": "%"}, {"measurement": "pest or weed control at 250 g/ha", "setting": "Field Bindweed [13]; 0.25 kg/ha", "result": 100, "unit": "%"}, {"measurement": "plant injury at 250 g/ha", "setting": "Cotton [14]; 0.25 kg/ha", "result": 95, "unit": "%"}, {"measurement": "pest or weed control at 250 g/ha", "setting": "Johnsongrass [15]; 0.25 kg/ha", "result": 50, "unit": "%"}, {"measurement": "plant injury at 250 g/ha", "setting": "Soybean [16]; 0.25 kg/ha", "result": 70, "unit": "%"}, {"measurement": "pest or weed control at 250 g/ha", "setting": "Morningglory [17]; 0.25 kg/ha", "result": 100, "unit": "%"}, {"measurement": "plant injury at 250 g/ha", "setting": "Rice [18]; 0.25 kg/ha", "result": 70, "unit": "%"}, {"measurement": "pest or weed control at 250 g/ha", "setting": "Velvetleaf [19]; 0.25 kg/ha", "result": 100, "unit": "%"}, {"measurement": "pest or weed control at 250 g/ha", "setting": "Green Foxtail [20]; 0.25 kg/ha", "result": 70, "unit": "%"}, {"measurement": "usefulness preemergently against broad leaf weeds", "setting": "broad leaf weeds", "result": "particularly useful"}, {"measurement": "pest or weed control at 250 g/ha", "setting": "Barnyardgrass [21]; 0.25 kg/ha", "result": 95, "unit": "%"}, {"measurement": "pest or weed control at 250 g/ha", "setting": "Velvetleaf [22]; 0.25 kg/ha", "result": 100, "unit": "%"}]}, {"smiles": "CCS(=O)(=O)N(COC)c1cc(-n2nnn(CCCF)c2=O)c(F)cc1Cl", "note": "[Compound 15, 1-[4-chloro-2-fluoro-5-[(N---ethylsulfonyl-N--methoxymethyl)amino]-phenyl]-1,4-dihydro-4-(3-fluoropropyl)-5H--tetrazol-5-one]", "values": [{"measurement": "plant injury at 500 g/ha", "setting": "Rice [1]; 0.5 kg/ha", "result": 100, "unit": "%"}, {"measurement": "pest or weed control at 500 g/ha", "setting": "Johnsongrass [2]; 0.5 kg/ha", "result": 100, "unit": "%"}, {"measurement": "plant injury at 500 g/ha", "setting": "Field Corn [3]; 0.5 kg/ha", "result": 100, "unit": "%"}, {"measurement": "plant injury at 500 g/ha", "setting": "Wheat [4]; 0.5 kg/ha", "result": 100, "unit": "%"}, {"measurement": "plant injury at 500 g/ha", "setting": "Soybean [5]; 0.5 kg/ha", "result": 95, "unit": "%"}, {"measurement": "pest or weed control at 500 g/ha", "setting": "Barnyardgrass [6]; 0.5 kg/ha", "result": 80, "unit": "%"}, {"measurement": "plant injury at 500 g/ha", "setting": "Cotton [7]; 0.5 kg/ha", "result": 100, "unit": "%"}, {"measurement": "pest or weed control at 500 g/ha", "setting": "Green Foxtail [8]; 0.5 kg/ha", "result": 90, "unit": "%"}, {"measurement": "pest or weed control at 500 g/ha", "setting": "Morningglory [9]; 0.5 kg/ha", "result": 100, "unit": "%"}, {"measurement": "plant injury at 500 g/ha", "setting": "Wheat [10]; 0.5 kg/ha", "result": 100, "unit": "%"}, {"measurement": "plant injury at 500 g/ha", "setting": "Field Corn [11]; 0.5 kg/ha", "result": 95, "unit": "%"}, {"measurement": "pest or weed control at 500 g/ha", "setting": "Field Bindweed [12]; 0.5 kg/ha", "result": 100, "unit": "%"}, {"measurement": "pest or weed control at 500 g/ha", "setting": "Field Bindweed [13]; 0.5 kg/ha", "result": 80, "unit": "%"}, {"measurement": "plant injury at 500 g/ha", "setting": "Cotton [14]; 0.5 kg/ha", "result": 100, "unit": "%"}, {"measurement": "pest or weed control at 500 g/ha", "setting": "Johnsongrass [15]; 0.5 kg/ha", "result": 80, "unit": "%"}, {"measurement": "plant injury at 500 g/ha", "setting": "Soybean [16]; 0.5 kg/ha", "result": 95, "unit": "%"}, {"measurement": "pest or weed control at 500 g/ha", "setting": "Morningglory [17]; 0.5 kg/ha", "result": 100, "unit": "%"}, {"measurement": "plant injury at 500 g/ha", "setting": "Rice [18]; 0.5 kg/ha", "result": 60, "unit": "%"}, {"measurement": "pest or weed control at 500 g/ha", "setting": "Velvetleaf [19]; 0.5 kg/ha", "result": 100, "unit": "%"}, {"measurement": "pest or weed control at 500 g/ha", "setting": "Green Foxtail [20]; 0.5 kg/ha", "result": 100, "unit": "%"}, {"measurement": "pest or weed control at 500 g/ha", "setting": "Barnyardgrass [21]; 0.5 kg/ha", "result": 100, "unit": "%"}, {"measurement": "pest or weed control at 500 g/ha", "setting": "Velvetleaf [22]; 0.5 kg/ha", "result": 100, "unit": "%"}]}]}
